{"source": "patent US20160367623A1", "about": "“AGONISTS OF GUANYLATE CYCLASE USEFUL FOR THE TREATMENT OF GASTROINTESTINAL DISORDERS, INFLAMMATION, CANCER AND OTHER DISORDERS” (priority 2015, published 2016)", "test_system": "patients with chronic idiopathic constipation (CIC)", "experiment": "Second phase 3 CIC trial: change from baseline in CSBMs/week", "type": "in vivo, human", "details": "MRA", "key": {"[1]": {"details": "Week 8, 6 mg, ITT Population-Excluding Duplicate Patients"}, "[2]": {"details": "Week 9, 3 mg, ITT Population-Excluding Duplicate Patients"}, "[3]": {"details": "Week 9, 6 mg, ITT Population-Excluding Duplicate Patients"}, "[4]": {"details": "Week 10, 3 mg, ITT Population-Excluding Duplicate Patients"}, "[5]": {"details": "Week 10, 6 mg, ITT Population-Excluding Duplicate Patients"}, "[6]": {"details": "Week 11, 3 mg, ITT Population-Excluding Duplicate Patients"}, "[7]": {"details": "Week 11, 6 mg, ITT Population-Excluding Duplicate Patients"}, "[8]": {"details": "Week 12, 3 mg, ITT Population-Excluding Duplicate Patients"}, "[9]": {"details": "Week 12, 6 mg, ITT Population-Excluding Duplicate Patients"}, "[10]": {"details": "overall average estimate across the 12-week treatment period, 3 mg, ITT Population"}, "[11]": {"details": "overall average estimate across the 12-week treatment period, 3 mg, ITT Population-Excluding Duplicate Patients"}, "[12]": {"details": "overall average estimate across the 12-week treatment period, 6 mg, ITT Population"}, "[13]": {"details": "overall average estimate across the 12-week treatment period, 6 mg, ITT Population-Excluding Duplicate Patients"}}, "note": "Bridge positions count the residues as written; N and C are the ends. Ends that are not written are not given here.", "data": [{"substance": "Asn^1-Asp^2-Glu^3-Cys^4-Glu^5-Leu^6-Cys^7-Val^8-Asn^9-Val^10-Ala^11-Cys^12-Thr^13-Gly^14-Cys^15-Leu^16 (NDECELCVNVACTGCL; disulfide 4-12, 7-15) [Plecanatide, uroguanylin analogue, guanylate cyclase-C agonist; (C4:C12, C7:C15) bicycle peptide]", "values": [{"measurement": "Change from Baseline in CSBMs, Mean (SD)", "setting": "Week 8, 6 mg, ITT Population", "result": "2.36 (3.243) CSBMs/week"}, {"measurement": "Change from Baseline in CSBMs, Difference from Placebo", "setting": "[1]", "result": 0.85, "unit": "CSBMs/week"}, {"measurement": "Change from Baseline in CSBMs, LS Mean (SE)", "setting": "[1]", "result": "2.35 (0.155) CSBMs/week"}, {"measurement": "Change from Baseline in CSBMs, Mean (SD)", "setting": "[1]", "result": "2.37 (3.250) CSBMs/week"}, {"measurement": "Change from Baseline in CSBMs, Mean (SD)", "setting": "Week 8, Active Combined, ITT Population-Excluding Duplicate Patients", "result": "2.52 (3.510) CSBMs/week"}, {"measurement": "Change from Baseline in CSBMs, Mean (SD)", "setting": "Week 8, Active Combined, ITT Population", "result": "2.51 (3.498) CSBMs/week"}, {"measurement": "Change from Baseline in CSBMs, Difference from Placebo", "setting": "Week 9, 3 mg, ITT Population", "result": 0.94, "unit": "CSBMs/week"}, {"measurement": "Change from Baseline in CSBMs, LS Mean (SE)", "setting": "Week 9, 3 mg, ITT Population", "result": "2.49 (0.156) CSBMs/week"}, {"measurement": "Change from Baseline in CSBMs, Mean (SD)", "setting": "Week 9, 3 mg, ITT Population", "result": "2.59 (3.459) CSBMs/week"}, {"measurement": "Change from Baseline in CSBMs, Difference from Placebo", "setting": "[2]", "result": 0.95, "unit": "CSBMs/week"}, {"measurement": "Change from Baseline in CSBMs, LS Mean (SE)", "setting": "[2]", "result": "2.53 (0.159) CSBMs/week"}, {"measurement": "Change from Baseline in CSBMs, Mean (SD)", "setting": "[2]", "result": "2.62 (3.479) CSBMs/week"}, {"measurement": "Change from Baseline in CSBMs, Difference from Placebo", "setting": "Week 9, 6 mg, ITT Population", "result": 0.81, "unit": "CSBMs/week"}, {"measurement": "Change from Baseline in CSBMs, LS Mean (SE)", "setting": "Week 9, 6 mg, ITT Population", "result": "2.37 (0.154) CSBMs/week"}, {"measurement": "Change from Baseline in CSBMs, Mean (SD)", "setting": "Week 9, 6 mg, ITT Population", "result": "2.38 (3.176) CSBMs/week"}, {"measurement": "Change from Baseline in CSBMs, Difference from Placebo", "setting": "[3]", "result": 0.81, "unit": "CSBMs/week"}, {"measurement": "Change from Baseline in CSBMs, LS Mean (SE)", "setting": "[3]", "result": "2.39 (0.156) CSBMs/week"}, {"measurement": "Change from Baseline in CSBMs, Mean (SD)", "setting": "[3]", "result": "2.39 (3.184) CSBMs/week"}, {"measurement": "Change from Baseline in CSBMs, Mean (SD)", "setting": "Week 9, Active Combined, ITT Population-Excluding Duplicate Patients", "result": "2.50 (3.329) CSBMs/week"}, {"measurement": "Change from Baseline in CSBMs, Mean (SD)", "setting": "Week 9, Active Combined, ITT Population", "result": "2.48 (3.316) CSBMs/week"}, {"measurement": "Change from Baseline in CSBMs, Difference from Placebo", "setting": "Week 10, 3 mg, ITT Population", "result": 0.85, "unit": "CSBMs/week"}, {"measurement": "Change from Baseline in CSBMs, LS Mean (SE)", "setting": "Week 10, 3 mg, ITT Population", "result": "2.49 (0.156) CSBMs/week"}, {"measurement": "Change from Baseline in CSBMs, Mean (SD)", "setting": "Week 10, 3 mg, ITT Population", "result": "2.63 (3.617) CSBMs/week"}, {"measurement": "Change from Baseline in CSBMs, Difference from Placebo", "setting": "[4]", "result": 0.87, "unit": "CSBMs/week"}, {"measurement": "Change from Baseline in CSBMs, LS Mean (SE)", "setting": "[4]", "result": "2.52 (0.159) CSBMs/week"}, {"measurement": "Change from Baseline in CSBMs, Mean (SD)", "setting": "[4]", "result": "2.65 (3.637) CSBMs/week"}, {"measurement": "Change from Baseline in CSBMs, Difference from Placebo", "setting": "Week 10, 6 mg, ITT Population", "result": 0.86, "unit": "CSBMs/week"}, {"measurement": "Change from Baseline in CSBMs, LS Mean (SE)", "setting": "Week 10, 6 mg, ITT Population", "result": "2.50 (0.154) CSBMs/week"}, {"measurement": "Change from Baseline in CSBMs, Mean (SD)", "setting": "Week 10, 6 mg, ITT Population", "result": "2.51 (3.288) CSBMs/week"}, {"measurement": "Change from Baseline in CSBMs, Difference from Placebo", "setting": "[5]", "result": 0.87, "unit": "CSBMs/week"}, {"measurement": "Change from Baseline in CSBMs, LS Mean (SE)", "setting": "[5]", "result": "2.52 (0.156) CSBMs/week"}, {"measurement": "Change from Baseline in CSBMs, Mean (SD)", "setting": "[5]", "result": "2.51 (3.288) CSBMs/week"}, {"measurement": "Change from Baseline in CSBMs, Mean (SD)", "setting": "Week 10, Active Combined, ITT Population-Excluding Duplicate Patients", "result": "2.58 (3.458) CSBMs/week"}, {"measurement": "Change from Baseline in CSBMs, Mean (SD)", "setting": "Week 10, Active Combined, ITT Population", "result": "2.57 (3.449) CSBMs/week"}, {"measurement": "Change from Baseline in CSBMs, Difference from Placebo", "setting": "Week 11, 3 mg, ITT Population", "result": 0.96, "unit": "CSBMs/week"}, {"measurement": "Change from Baseline in CSBMs, LS Mean (SE)", "setting": "Week 11, 3 mg, ITT Population", "result": "2.56 (0.157) CSBMs/week"}, {"measurement": "Change from Baseline in CSBMs, Mean (SD)", "setting": "Week 11, 3 mg, ITT Population", "result": "2.71 (3.710) CSBMs/week"}, {"measurement": "Change from Baseline in CSBMs, Difference from Placebo", "setting": "[6]", "result": 0.99, "unit": "CSBMs/week"}, {"measurement": "Change from Baseline in CSBMs, LS Mean (SE)", "setting": "[6]", "result": "2.61 (0.159) CSBMs/week"}, {"measurement": "Change from Baseline in CSBMs, Mean (SD)", "setting": "[6]", "result": "2.75 (3.728) CSBMs/week"}, {"measurement": "Change from Baseline in CSBMs, Difference from Placebo", "setting": "Week 11, 6 mg, ITT Population", "result": 0.80, "unit": "CSBMs/week"}, {"measurement": "Change from Baseline in CSBMs, LS Mean (SE)", "setting": "Week 11, 6 mg, ITT Population", "result": "2.40 (0.155) CSBMs/week"}, {"measurement": "Change from Baseline in CSBMs, Mean (SD)", "setting": "Week 11, 6 mg, ITT Population", "result": "2.44 (3.276) CSBMs/week"}, {"measurement": "Change from Baseline in CSBMs, Difference from Placebo", "setting": "[7]", "result": 0.79, "unit": "CSBMs/week"}, {"measurement": "Change from Baseline in CSBMs, LS Mean (SE)", "setting": "[7]", "result": "2.41 (0.156) CSBMs/week"}, {"measurement": "Change from Baseline in CSBMs, Mean (SD)", "setting": "[7]", "result": "2.43 (3.266) CSBMs/week"}, {"measurement": "Change from Baseline in CSBMs, Mean (SD)", "setting": "Week 11, Active Combined, ITT Population-Excluding Duplicate Patients", "result": "2.58 (3.498) CSBMs/week"}, {"measurement": "Change from Baseline in CSBMs, Mean (SD)", "setting": "Week 11, Active Combined, ITT Population", "result": "2.57 (3.493) CSBMs/week"}, {"measurement": "Change from Baseline in CSBMs, Difference from Placebo", "setting": "Week 12, 3 mg, ITT Population", "result": 0.94, "unit": "CSBMs/week"}, {"measurement": "Change from Baseline in CSBMs, LS Mean (SE)", "setting": "Week 12, 3 mg, ITT Population", "result": "2.60 (0.157) CSBMs/week"}, {"measurement": "Change from Baseline in CSBMs, Mean (SD)", "setting": "Week 12, 3 mg, ITT Population", "result": "2.76 (3.785) CSBMs/week"}, {"measurement": "Change from Baseline in CSBMs, Difference from Placebo", "setting": "[8]", "result": 0.97, "unit": "CSBMs/week"}, {"measurement": "Change from Baseline in CSBMs, LS Mean (SE)", "setting": "[8]", "result": "2.64 (0.159) CSBMs/week"}, {"measurement": "Change from Baseline in CSBMs, Mean (SD)", "setting": "[8]", "result": "2.78 (3.803) CSBMs/week"}, {"measurement": "Change from Baseline in CSBMs, Difference from Placebo", "setting": "Week 12, 6 mg, ITT Population", "result": 0.86, "unit": "CSBMs/week"}, {"measurement": "Change from Baseline in CSBMs, LS Mean (SE)", "setting": "Week 12, 6 mg, ITT Population", "result": "2.51 (0.155) CSBMs/week"}, {"measurement": "Change from Baseline in CSBMs, Mean (SD)", "setting": "Week 12, 6 mg, ITT Population", "result": "2.57 (3.409) CSBMs/week"}, {"measurement": "Change from Baseline in CSBMs, Difference from Placebo", "setting": "[9]", "result": 0.84, "unit": "CSBMs/week"}, {"measurement": "Change from Baseline in CSBMs, LS Mean (SE)", "setting": "[9]", "result": "2.51 (0.157) CSBMs/week"}, {"measurement": "Change from Baseline in CSBMs, Mean (SD)", "setting": "[9]", "result": "2.56 (3.366) CSBMs/week"}, {"measurement": "Change from Baseline in CSBMs, Mean (SD)", "setting": "Week 12, Active Combined, ITT Population-Excluding Duplicate Patients", "result": "2.67 (3.585) CSBMs/week"}, {"measurement": "Change from Baseline in CSBMs, Mean (SD)", "setting": "Week 12, Active Combined, ITT Population", "result": "2.66 (3.596) CSBMs/week"}, {"measurement": "Change from Baseline in CSBMs, Difference from Placebo", "setting": "[10]", "result": 0.90, "unit": "CSBMs/week"}, {"measurement": "Change from Baseline in CSBMs, LS Mean (SE)", "setting": "[10]", "result": "2.27 (0.135) CSBMs/week"}, {"measurement": "Change from Baseline in CSBMs, Difference from Placebo", "setting": "[11]", "result": 0.91, "unit": "CSBMs/week"}, {"measurement": "Change from Baseline in CSBMs, LS Mean (SE)", "setting": "[11]", "result": "2.30 (0.137) CSBMs/week"}, {"measurement": "Change from Baseline in CSBMs, Difference from Placebo", "setting": "[12]", "result": 0.79, "unit": "CSBMs/week"}, {"measurement": "Change from Baseline in CSBMs, LS Mean (SE)", "setting": "[12]", "result": "2.16 (0.133) CSBMs/week"}, {"measurement": "Change from Baseline in CSBMs, Difference from Placebo", "setting": "[13]", "result": 0.79, "unit": "CSBMs/week"}, {"measurement": "Change from Baseline in CSBMs, LS Mean (SE)", "setting": "[13]", "result": "2.18 (0.135) CSBMs/week"}]}]}
